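48-hour exposure; five concentrations; linearly interpolated endpoints. TGI is the concentration that stops growth completely.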 Where a SMILES comes first, the peptide text is derived from it. [ ]: non-standard residue; d: D form. The star is where a group is joined. ξ: configuration not given here. ξNMeF = CNC(Cc1ccccc1)C(=O)O; NMeV = CN[C@H](C(=O)O)C(C)C; Boc = CC(C)(C)OC(=O)*; OBn = c1ccc(CO*)cc1
Tests used:
Test in all cases: DTP human tumour cell line panel, 48 h
HL-60(TB) leukemia = tested on: HL-60(TB) leukemia
CCRF-CEM leukemia = tested on: CCRF-CEM leukemia
HOP-62 NSCLC = tested on: HOP-62 NSCLC
SK-MEL-5 melanoma = tested on: SK-MEL-5 melanoma
NCI-H226 lung = tested on: NCI-H226 lung
OVCAR-4 ovarian = tested on: OVCAR-4 ovarian
LOX IMVI melanoma = tested on: LOX IMVI melanoma
TK-10 renal = tested on: TK-10 renal
OVCAR-5 ovarian = tested on: OVCAR-5 ovarian
RPMI-8226 leukemia = tested on: RPMI-8226 leukemia
XF 498 CNS = tested on: XF 498 CNS

Row | Compound | TGI (HL-60(TB) leukemia) [µM] | TGI (CCRF-CEM leukemia) [µM] | TGI (HOP-62 NSCLC) [µM] | TGI (SK-MEL-5 melanoma) [µM] | TGI (NCI-H226 lung) [µM] | TGI (OVCAR-4 ovarian) [µM] | TGI (LOX IMVI melanoma) [µM] | TGI (TK-10 renal) [µM] | TGI (OVCAR-5 ovarian) [µM] | TGI (RPMI-8226 leukemia) [µM] | TGI (XF 498 CNS) [µM]
1 | CC(C)[C@@H](C(=O)N(C)[C@H](C(=O)N1CCC[C@H]1C(=O)OCc1ccccc1)C(C)C)N(C)C(=O)C(Cc1ccccc1)N(C)C(=O)[C@H](NC(=O)OC(C)(C)C)C(C)C (some centres not stated) (Boc-[dV][ξNMeF][NMeV][NMeV]P-OBn) | > 31.6 | > 31.6 | > 31.6 | 23 | > 100 | > 100 | > 31.6 | > 31.6 | > 31.6 | > 31.6 | 27.9
2 | C=CCCCCCCCCCP(=O)(c1ccccc1)c1ccc2c(c1)OCCOCCOCCOCCO2 (configuration not stated) | 19.7 | 40 | 30.5 | 24.2 | 33.9 | 24.8 | 29 | 32.4 | 31.2 | 31.8 | 32.7

Source: PubChem BioAssay (NCI)
